Patent publication US9757477B2, “Imaging brown adipose tissue with curcumin derivatives” (The General Hospital Corporation, priority 2013, dated 2017)
Several values for one entry are separate records, joined by “and”; a condition that tells them apart may be missing. Equal values may be shown once.

Tests used:
[1] = test system: interscapular BAT; experiment: Top-down whole-organism NIR fluorescence screening of dyes (ROI1/ROI2 contrast); type: in vivo, nude mice; conditions: for Ratio No 1 (ROI1/ROI2 average fluorescence intensity) / Ratio No 2 (ROI1/ROI2 average fluorescence intensity) / Ratio No 3 (ROI1/ROI2 average fluorescence intensity) / Ratio AVERAGE (mean ratio ROI1/ROI2): nude mice, one hour post-injection; for Ratio No 1 (ROI1/ROI2 average fluorescence intensity) / Ratio No 2 (ROI1/ROI2 average fluorescence intensity) / Ratio No 3 (ROI1/ROI2 average fluorescence intensity): 10 μg/mouse i.v.; for Ratio No 1 (ROI1/ROI2 average fluorescence intensity): first excitation/emission filter pair; for Ratio No 2 (ROI1/ROI2 average fluorescence intensity): second excitation/emission filter pair; for Ratio No 3 (ROI1/ROI2 average fluorescence intensity): third excitation/emission filter pair; for Ratio AVERAGE (mean ratio ROI1/ROI2): i.v., mean of three filter pairs, hit threshold >1.10; for visible contrast around the interscapular BAT area: in vivo NIR images
Protocol: 38 fluorescent dyes from commercial resources and from the inventors' laboratory were screened. Dyes with excitation range of 550-745 nm, emission range of 600-840 nm, and with molecular weight of less than 700 Da (except Cy5.5) (representative dyes are listed in FIG. 1d and the full list is shown in Table 2). Their hydrophobicities were not determined. The library was screened by intravenous tail injection of compounds into nude mice (10μg/mouse). Each dye was imaged with three optimized excitation/emission filter-pairs, and images at one hour after i.v. injection were acquired.
Top-down whole organism screening was performed as follows. Nude mice (nu/nu COX7) were purchased from Massachusetts General Hospital and Balb/c mice were from Jackson Laboratory. All animal experimental procedures were approved by the Institutional Animal Care and Use Committee (IACUC) at Massachusetts General Hospital. Dye stock solutions were prepared in DMSO. The final injection solution (0.1 mg/ml) was freshly prepared in a mixed solution of 20% DMSO, 20% Cremophor EL and 60% saline. Nude mice (n=5) were injected with a 100 μL dye solution via tail vein. For each imaging session, mice were anesthetized with a mixture of oxygen and isoflurane for 5 minutes, and then positioned into the imaging chamber of IVIS® Spectrum in vivo pre-clinical imaging system. Images were acquired at one-hour post-injection using sequence imaging with three excitation/emission filter pairs for each dye.
Hits selection was performed as follows. Hits from cell- or protein-based screening are usually selected by setting certain threshold. In the case of the top-down imaging screening, two methods were used (threshold and visible contrast) to select hits. First, three images obtained with three excitation/emission pairs were selected for each dye. These ex/em pairs were selected from the closest excitation and emission wavelengths of the tested dyes. For instance, 605/660 nm, 605/680 nm, 640/680 nm were selected for image acquisition of Nile blue (625/660 nm). The quantification of contrast for each image was calculated as a ratio of two ROIs (region of interest). ROI1 reflected the average signal from interscapular BAT and ROI2 was the average signal of the area that included BAT and white adipose tissue (WAT) around the interscapular site (FIG. 1b, left). The averaged fluorescent signal of ROI was used instead of the total signal, because the total signal depends on the area of ROI, whereas the averaged signal reflects the density of signal. The ratio of ROI1/ROI2 could reflect the signal/noise ratio of the tested probe, and could also reflect the selectivity of the probe for BAT over WAT. For each dye, three ROI1/ROI2 ratios obtained with the three filter pairs were calculated. The mean of the ratios was used as the threshold. If the mean ratio was >1.10, the dye was selected as a potential positive hit (FIG. 1c). Since the contrast of a dye in the top-down screening is in the visible range, the visible contrast around the interscapular BAT area was also tested for the hits with the mean ratio of >1.10. If both mean ratio and the visible contrast were positive, then the hit was subjected to re-testing procedure to validate its reliability as described below.
Although CRANAD-2 and CRANAD-3 were able to provide certain contrast for BAT in vivo, their excitation and emission wavelengths were still shorter than required for an ideal NIR imaging probe (both excitation and emission >640 nm). […] To seek better probes, a sub-library was synthesized based on the structures of the lead probes CRANAD-2 and -3. CRANAD-6, -19, -22, -24, -26, -32 and -43 were synthesized and tested (images and chemical structures, excitation and emission spectra are shown in FIG. 9 a-e). […] However, the ROI1/ROI2 ratio of CRANAD-22 was not improved (FIG. 9c).

[2] = test system: interscapular BAT; experiment: Re-testing of hits with stepwise dissection and NIR imaging; type: in vivo, mice; conditions: stepwise dissection
Protocol: Like protein/cell-based screening, hit re-testing experiments were conducted to validate the reliability of this approach. CRANAD-2, -3, LDS 722 and Rhodamine 640 were subjected to re-testing by repeating the above imaging procedure. Images were acquired one hour after probe injection.
Next, stepwise dissection and imaging were performed to track the source of the fluorescence contrast at the interscapular site. Skin and the thin WAT layer that covers BAT were first removed, and then BAT was dissected, and NIR images were captured at each step. […] The signal contribution from BAT (R(BAT)) was roughly estimated using the ratio of fluorescence signals acquired after (F(BAT)) and before (F(intact)) the first step dissection of skin and WAT.

N=c1cc2oc3cc(N)ccc3nc-2c2ccccc12 [Cresyl Violet]
Ratio No 1 (ROI1/ROI2 average fluorescence intensity) [1]: 9.56E−01 | Ratio No 2 (ROI1/ROI2 average fluorescence intensity) [1]: 9.72E−01 | Ratio No 3 (ROI1/ROI2 average fluorescence intensity) [1]: 1.02E+00 | Ratio AVERAGE (mean ratio ROI1/ROI2) [1]: 9.81E−01

CCN1/C(=C/C=C/C=C/c2oc3ccccc3[n+]2CC)Oc2ccccc21.[I-] [DODC]
Ratio No 1 (ROI1/ROI2 average fluorescence intensity) [1]: 1.08E+00 | Ratio No 2 (ROI1/ROI2 average fluorescence intensity) [1]: 1.09E+00 | Ratio No 3 (ROI1/ROI2 average fluorescence intensity) [1]: 1.10E+00 | Ratio AVERAGE (mean ratio ROI1/ROI2) [1]: 1.09E+00

CCN1/C(=C/C=C/C=C/C=C/c2oc3ccccc3[n+]2CC)Oc2ccccc21.[I-] [DOTC]
Ratio No 1 (ROI1/ROI2 average fluorescence intensity) [1]: 9.48E−01 | Ratio No 2 (ROI1/ROI2 average fluorescence intensity) [1]: 9.44E−01 | Ratio No 3 (ROI1/ROI2 average fluorescence intensity) [1]: 9.52E−01 | Ratio AVERAGE (mean ratio ROI1/ROI2) [1]: 9.48E−01

CN1C(=CC=CC=CC2=[N+](C)c3ccccc3C2(C)C)C(C)(C)c2ccccc21.[I-] [HIDC]
Ratio No 1 (ROI1/ROI2 average fluorescence intensity) [1]: 1.01E+00 | Ratio No 2 (ROI1/ROI2 average fluorescence intensity) [1]: 1.01E+00 | Ratio No 3 (ROI1/ROI2 average fluorescence intensity) [1]: 1.02E+00 | Ratio AVERAGE (mean ratio ROI1/ROI2) [1]: 1.01E+00

CN1C(=CC=CC=CC=CC2=[N+](C)c3ccccc3C2(C)C)C(C)(C)c2ccccc21.[I-] [HITC]
Ratio No 1 (ROI1/ROI2 average fluorescence intensity) [1]: 1.07E+00 | Ratio No 2 (ROI1/ROI2 average fluorescence intensity) [1]: 1.02E+00 | Ratio No 3 (ROI1/ROI2 average fluorescence intensity) [1]: 1.06E+00 | Ratio AVERAGE (mean ratio ROI1/ROI2) [1]: 1.05E+00

CC1(C)C(/C=C/C=C/C=C/C=C2\N(CCCCS(=O)(=O)[O-])c3ccc4ccccc4c3C2(C)C)=[N+](CCCCS(=O)(=O)[O-])c2ccc3ccccc3c21.[Na+] [IR125]
Ratio No 1 (ROI1/ROI2 average fluorescence intensity) [1]: 8.65E−01 | Ratio No 2 (ROI1/ROI2 average fluorescence intensity) [1]: 9.76E−01 | Ratio No 3 (ROI1/ROI2 average fluorescence intensity) [1]: 8.49E−01 | Ratio AVERAGE (mean ratio ROI1/ROI2) [1]: 8.97E−01

CN1/C(=C/C=C2\CCCC(/C=C/C3=[N+](C)c4ccc5ccccc5c4C3(C)C)=C2Cl)C(C)(C)c2c1ccc1ccccc21.Cc1ccc(S(=O)(=O)[O-])cc1 [IR813]
Ratio No 1 (ROI1/ROI2 average fluorescence intensity) [1]: 1.08E+00 | Ratio No 2 (ROI1/ROI2 average fluorescence intensity) [1]: 9.91E−01 | Ratio No 3 (ROI1/ROI2 average fluorescence intensity) [1]: 1.08E+00 | Ratio AVERAGE (mean ratio ROI1/ROI2) [1]: 1.05E+00

CC[n+]1ccccc1/C=C/C=C/c1ccc(N(C)C)cc1.[O-][Cl+3]([O-])([O-])[O-] [LDS698]
Ratio No 1 (ROI1/ROI2 average fluorescence intensity) [1]: 1.03E+00 | Ratio No 2 (ROI1/ROI2 average fluorescence intensity) [1]: 1.06E+00 | Ratio No 3 (ROI1/ROI2 average fluorescence intensity) [1]: 1.04E+00 | Ratio AVERAGE (mean ratio ROI1/ROI2) [1]: 1.04E+00

CC[n+]1ccc(C=CC=Cc2ccc(N(C)C)cc2)cc1.[O-][Cl+3]([O-])([O-])[O-] [LDS722]
visible contrast around the interscapular BAT area [1]: weak contrast and no clear triangular contours | Ratio No 1 (ROI1/ROI2 average fluorescence intensity) [1]: 1.15E+00 | Ratio No 2 (ROI1/ROI2 average fluorescence intensity) [1]: 1.14E+00 | Ratio No 3 (ROI1/ROI2 average fluorescence intensity) [1]: 1.08E+00 | Ratio AVERAGE (mean ratio ROI1/ROI2) [1]: 1.13 and 1.13E+00 | fluorescence signal from BAT (before vs after BAT removal) [2]: no significant fluorescent signal was from BAT

CN(C)c1ccc(/C=C/C=C/C2=[N+](C)c3ccccc3C2(C)C)cc1.[O-][Cl+3]([O-])([O-])[O-] [LDS730]
Ratio No 1 (ROI1/ROI2 average fluorescence intensity) [1]: 1.03E+00 | Ratio No 2 (ROI1/ROI2 average fluorescence intensity) [1]: 1.08E+00 | Ratio No 3 (ROI1/ROI2 average fluorescence intensity) [1]: 1.09E+00 | Ratio AVERAGE (mean ratio ROI1/ROI2) [1]: 1.07E+00

CC[n+]1c(/C=C/C=C/c2ccc(N(C)C)cc2)ccc2cc(N(C)C)ccc21.[O-][Cl+3]([O-])([O-])[O-] [LDS751]
Ratio No 1 (ROI1/ROI2 average fluorescence intensity) [1]: 1.07E+00 | Ratio No 2 (ROI1/ROI2 average fluorescence intensity) [1]: 1.05E+00 | Ratio No 3 (ROI1/ROI2 average fluorescence intensity) [1]: 1.11E+00 | Ratio AVERAGE (mean ratio ROI1/ROI2) [1]: 1.08E+00

CC[n+]1ccc(/C=C/C=C/c2ccc(N(C)C)cc2)c2ccccc21.[O-][Cl+3]([O-])([O-])[O-] [LDS798]
Ratio No 1 (ROI1/ROI2 average fluorescence intensity) [1]: 1.00E+00 | Ratio No 2 (ROI1/ROI2 average fluorescence intensity) [1]: 1.00E+00 | Ratio No 3 (ROI1/ROI2 average fluorescence intensity) [1]: 9.88E−01 | Ratio AVERAGE (mean ratio ROI1/ROI2) [1]: 9.98E−01

CCN=c1cc2oc3c4c5c(cc3nc-2c2ccccc12)CCCN5CCC4 [OX750]
Ratio No 1 (ROI1/ROI2 average fluorescence intensity) [1]: 1.09E+00 | Ratio No 2 (ROI1/ROI2 average fluorescence intensity) [1]: 1.09E+00 | Ratio No 3 (ROI1/ROI2 average fluorescence intensity) [1]: 1.04E+00 | Ratio AVERAGE (mean ratio ROI1/ROI2) [1]: 1.07E+00

CC1=C(C)C(C)=[N+]2C1=C(C#N)c1c(C)c(C)c(C)n1[B-]2(F)F [Pyromethene650]
Ratio No 1 (ROI1/ROI2 average fluorescence intensity) [1]: 1.09E+00 | Ratio No 2 (ROI1/ROI2 average fluorescence intensity) [1]: 1.07E+00 | Ratio No 3 (ROI1/ROI2 average fluorescence intensity) [1]: 1.08E+00 | Ratio AVERAGE (mean ratio ROI1/ROI2) [1]: 1.08E+00

O=C(O)c1ccccc1C1=c2cc3c4c(c2Oc2c1cc1c5c2CCCN5CCC1)CCC[N+]=4CCC3.[Cl-] [Rhodamine640]
visible contrast around the interscapular BAT area [1]: weak contrast and no clear triangular contours | Ratio No 1 (ROI1/ROI2 average fluorescence intensity) [1]: 1.15E+00 | Ratio No 2 (ROI1/ROI2 average fluorescence intensity) [1]: 1.15E+00 | Ratio No 3 (ROI1/ROI2 average fluorescence intensity) [1]: 1.15E+00 | Ratio AVERAGE (mean ratio ROI1/ROI2) [1]: 1.15 and 1.15E+00 | fluorescence signal from BAT (before vs after BAT removal) [2]: no significant signals were from BAT

CCN(CC)c1ccc2c(-c3ccccc3C(C)=O)c3ccc(=[N+](CC)CC)cc-3oc2c1 [RhodamineB]
Ratio No 1 (ROI1/ROI2 average fluorescence intensity) [1]: 1.01E+00 | Ratio No 2 (ROI1/ROI2 average fluorescence intensity) [1]: 1.01E+00 | Ratio No 3 (ROI1/ROI2 average fluorescence intensity) [1]: 9.54E−01 | Ratio AVERAGE (mean ratio ROI1/ROI2) [1]: 9.90E−01

Cy5.5
Ratio No 1 (ROI1/ROI2 average fluorescence intensity) [1]: 1.07E+00 | Ratio No 2 (ROI1/ROI2 average fluorescence intensity) [1]: 1.07E+00 | Ratio No 3 (ROI1/ROI2 average fluorescence intensity) [1]: 1.06E+00 | Ratio AVERAGE (mean ratio ROI1/ROI2) [1]: 1.07E+00

Sulforhodamine
Ratio No 1 (ROI1/ROI2 average fluorescence intensity) [1]: 8.51E−01 | Ratio No 2 (ROI1/ROI2 average fluorescence intensity) [1]: 8.86E−01 | Ratio No 3 (ROI1/ROI2 average fluorescence intensity) [1]: 9.21E−01 | Ratio AVERAGE (mean ratio ROI1/ROI2) [1]: 8.86E−01
